As usually defined, the AUC is the area under the concentration-time curve, a measure of exposure. For orientation: inhibition means the percentage by which the read-out fell short of the control. The inhibition in vivo is the change of the read-out against control, counted positive when it falls.

The text below walks through data of ChEMBL document CHEMBL5584321, “Chemoenzymatic Synthesis of DNP-Functionalized FGFR1-Binding Peptides as Novel Peptidomimetic Immunotherapeutics for Treating Lung Cancer” (J Med Chem, 2024).

The source made the active and inactive calls. The calls are words filed in the database; no cut-off is given here. Where a SMILES comes first, the peptide text is derived from it. The star is where a group is joined. X1 = O=[N+]([O-])c1ccc(OCCOCCOCCOCCOCCOCCN*)c([N+](=O)[O-])c1

Data set [1] in a line: AUC in immunized Sprague-Dawley rat at 1.5 mg/kg,SC administration measured upto 24 hrs by fluorescence based microplate reader assay. It is filed as ADME, organism-based. Particulars: in vivo.
For data set [2], the system named is L6. The data set can be described thus: Antiproliferative activity against FGF2-induced rat L6 cells stably expressing human full-length FGFR1c assessed as inhibition of cell growth at 100 uM incubated for 36 hrs by CCK-8 assay relative to control. It is filed as functional.
For data set [3], the system named is L6. As to the kind of experiment: Binding affinity to human full-length wild type FGFR1c stably expressed in rat L6 cells assessed as increase in fluorescence signal by antibody recruiting based flow cytometry. The format is cell-based. (Flow cytometry measures light scatter and fluorescence of single cells or particles in a stream.)
Data set [4] relates to NCI-H1581. As to the kind of experiment: Antitumor activity against human NCI-H1581 cells xenografted BALB/c mouse model assessed as inhibition of tumor growth at 20 mg/kg,SC administrated once daily for 12 days relative to control. It is filed as functional. Particulars: NCI-H1581, 288 h, time 12 day.
Data set [5] can be described thus: Toxicity in BALB/c mouse xenografted with human NCI-H1581 cells assessed as inflammation in heart at 20 mg/kg,SC administrated once daily for 12 days by hematoxylin and eosin staining based analysis. It is filed as organism-based. Particulars: in vivo, 288 h, time 12 day. Background: Xenograft models place foreign cells or tissue in a host animal.
A short description of data set [6]: Toxicity in BALB/c mouse xenografted with human NCI-H1581 cells assessed as inflammation in liver at 20 mg/kg,SC administrated once daily for 12 days by hematoxylin and eosin staining based analysis. The format is organism-based. Particulars: in vivo, 288 h, time 12 day.
Data set [7] can be described thus: Toxicity in BALB/c mouse xenografted with human NCI-H1581 cells assessed as inflammation in spleen at 20 mg/kg,SC administrated once daily for 12 days by hematoxylin and eosin staining based analysis. It is filed as organism-based. The following applies: in vivo, 288 h, time 12 day.
Data set [8] can be described thus: Toxicity in BALB/c mouse xenografted with human NCI-H1581 cells assessed as cell necrosis in liver at 20 mg/kg,SC administrated once daily for 12 days by hematoxylin and eosin staining based analysis. The format is organism-based. Particulars: in vivo, 288 h, time 12 day.
Data set [9] deals with NCI-H1581. The data set can be described thus: Antitumor activity against human NCI-H1581 cells xenografted BALB/c mouse model assessed as induction of apoptosis by measuring increase in TUNEL positive cells at 20 mg/kg,SC administrated once daily for 12 days. The format is functional, organism-based. Particulars: time 12.0 day.
In data set [10] the test system is NCI-H1581. As to the kind of experiment: Antitumor activity against human NCI-H1581 cells xenografted BALB/c mouse model assessed as tumor necrosis at 20 mg/kg,SC administrated once daily for 12 days by hematoxylin and eosin staining based analysis. The format is functional, organism-based. Particulars: time 12.0 day.

Consider `CC(C)C[C@H](NC(=O)[C@H](C)NC(=O)[C@@H](NC(=O)[C@H](Cc1ccc(O)cc1)NC(=O)[C@H](Cc1c[nH]c2ccccc12)NC(=O)[C@H](CO)NC(=O)[C@H](CO)NC(=O)[C@H](Cc1ccc(O)cc1)NC(=O)[C@H](CCCCN)NC(=O)[C@H](CCCNC(=N)N)NC(=O)[C@H](CO)NC(=O)[C@H](CCCNC(=N)N)NC(=O)[C@@H](N)Cc1ccc(O)cc1)C(C)C)C(=O)N[C@@H](CCCCN)C(=O)N[C@@H](CCCNC(=N)N)C(=O)N[C@@H](CC(C)C)C(=O)N1CCC[C@H]1C(=O)N[C@@H](CCC(=O)O)C(=O)N[C@H](C(=O)NCC(=O)NCC(=O)NCC(=O)NCCOCCOCCOCCOCCOCCOc1ccc([N+](=O)[O-])cc1[N+](=O)[O-])[C@@H](C)O` (H-YRSRKYSSWYVALKRLPETGGG-X1), for which the AUC at 24 h in data set [1] was determined as 2600 ng·h/mL. The inhibition at 100 µM with L6 [2] stood at 100%. Further, the Activity entry was “Dose-Dependent Effect” with L6 [3]; “Non-Toxic” in data set [5]; “Non-Toxic” in data set [6]; “Non-Toxic” in [7]; “Non-Toxic” in data set [8]. In the data set with NCI-H1581 [4], the inhibition in vivo at 20 mg/kg came out at 72.7%. In addition, the outcome in the data set with NCI-H1581 [9] and with NCI-H1581 [10] was Active.
